# Measured values taken from patent publication US4333930A, “Orthoarylideneaminophenethylamines and pharmaceutical compositions” (priority 1980, dated 1982).
# Like-named read-outs stand apart in the source and are kept apart here.
# Legend:
# [1] = Oral toxicity (mortality) in the mouse, Table 1; format: in vivo; conditions: mouse, in vivo, po, Swiss mice, 14 days
# Experimental: (§1) The mortality percentages caused by the products of the present invention administered orally to Swiss mice are shown in Table 1. The animals, free of specific pathological organism were housed in an air conditioned room from 24 to 48 hours before the start of the experiments. They were divided up into lots of 5 males and 5 females. With the animals unfed for 24 hours, the substances were administered intragastrically in a base of 6% gum arabic in a volume equal to 0.1 ml for 10 g of animal weight. The mortality was recorded at 14 days.
# (§2) % of mortality as a function of the dose
# [2] = test system: Swiss mice; experiment: Oral toxicity (mortality) in the mouse, Table 1; format: in vivo; conditions: 14 days, 20160 min
# Experimental: as §1, §2
# [3] = test system: phenylbenzoquinone (PBQ); experiment: Analgesic activity using phenylbenzoquinone (PBQ) as noxious agent, Table 2; format: in vivo, male Swiss mouse
# Experimental: The analgesic activity was determined with the male Swiss mouse using phenylbenzoquinone (PBQ) (a variation of the method of Siegmund et al, Proc. Soc. Exp. Med., […], 95, 729-31) as the noxious agent. Twenty-eightminutes after having administered the test products in a suspension in a 6% gum base, the PBQ solution was injected. The mice were then observed ca. 5 mn. for the next five minutes.
# % of analgesic activity as a function of
# the dose expressed in mg/kg
# [4] = test system: number of escapes the animal made in 5 minutes; experiment: Escape test, Table 3; format: in vivo, mouse; conditions: 5 min, read-out: % of activity (variation of the number of escapes)
# Description: The products of the invention were always administered orally in 6% gum base.
# The notation NS signifies that the difference between the results noted for the product and the results noted for the excipient alone is not significant at the threshold 0.05 according to the Student t Test.
# [5] = test system: number of displacements of the animal; experiment: Four plates test (anxiolytic activity), Table 5; format: in vivo; conditions: oral, mouse
# Description: (§3) The psychotropic profile of the present invention products has been characterized with the animals in numerous tests some of whose results are shown hereinafter. The products of the invention were always administered orally in 6% gum base.
# A certain number of products manifest an anxiolytic activity evidenced in the test with the four plates with the mouse (Table 5).
# % of increase in the number of displacements of the
# animal as a function of the dose expressed in mg/kg
# [6] = test system: ptosis induced by reserpine; experiment: Antagonism of ptosis induced by reserpine, Table 6; format: in vivo; conditions: oral, read-out: % of inhibition of ptosis induced by reserpine
# Description: as §3
# (§4) Certain tests made it possible to show antidepressive activities. These are tests of antagonism to the effects of reserpine, oxotremorine (according to Everett G. M. et al, Science, 1956, 124, 79 and Levy J. et al, Therapie 1965, 20, 265) and to despair (according to Porsolt P. D. et al, Eur. J. Pharmacol., 1978, 47, 379-91).
# % of inhibition of ptosis induced by reserpine
# as a function of the dose administered orally
# [7] = test system: trembling induced by oxotremorine; experiment: Antagonism of trembling induced by oxotremorine, Table 7; format: in vivo; conditions: oral, read-out: % of inhibition of trembling induced by oxotremorine
# Description: as §3, §4
# % of inhibition of trembling induced by
# oxotremorine as a function of the dose
# (§5) administered expressed in mg/kg
# [8] = test system: despair; experiment: Test of despair (Porsolt), Table 8; format: in vivo; conditions: oral
# Description: as §3, §4
# Test of despair: % of antagonism as a function
# of the dose administered orally and expressed
# [9] = test system: salivation induced by pilocarpine; experiment: Inhibition of salivation induced by pilocarpine (anticholinergic activity), Table 9; format: in vivo; conditions: oral
# Description: as §3
# Certain products manifest an anticholinergic activity evidenced in the inhibition test of salivation induced by pilocarpine (Table 9).
# % of inhibition of salivation induced by
# pilocarpine as a function of the dose
# as §5
# [10] = test system: stereotype induced by apomorphine; experiment: Antagonism of the stereotype induced by apomorphine, Table 4; format: in vivo; conditions: for % of activity vis-a-vis the stereotype induced by apomorphine: oral
# Description: as §3
# % of activity vis-a-vis the stereotype
# induced by apomorphine as a function of the
# administered dose expressed in mg/kg
# [11] = 100 mg/kg, male Swiss mouse, PBQ
smiles,measurement,setting,value
CN(C)CCc1cc2c(cc1N=Cc1cccs1)OCO2 [COR 01 151],mortality at 336 h,[1]; 750 mg/kg,60%
same,% of mortality,[2]; 150 mg/kg,0%
same,% of mortality,[2]; 250 mg/kg,10%
same,% of mortality,[2]; 500 mg/kg,40%
same,% of analgesic activity,"[3]; 50 mg/kg, male Swiss mouse, PBQ",41%
same,inhibition in vivo at 100 mg/kg,"[3]; Mus musculus, read-out: % of analgesic activity, 100 mg/kg, male Swiss mouse, PBQ",79%
same,change in vivo at 100 mg/kg,"[4]; Mus musculus, po",-41%
C(=Nc1cc2c(cc1CCN1CCCC1)OCO2)c1cccnc1 [COR 01 173],mortality at 336 h,[1]; 500 mg/kg,0%
same,mortality at 336 h,[1]; 1000 mg/kg,30%
same,change in vivo at 5 mg/kg,"[4]; 5 mg/kg, oral, mouse, 5 minutes",-33%
same,change in vivo at 25 mg/kg,"[4]; 25 mg/kg, oral, mouse, 5 minutes",-13%
same,change in vivo at 50 mg/kg,"[4]; 50 mg/kg, oral, mouse, 5 minutes",-29%
same,change in vivo at 75 mg/kg,"[4]; 75 mg/kg, oral, mouse, 5 minutes",-26%
same,change in vivo at 100 mg/kg,"[4]; 100 mg/kg, oral, mouse, 5 minutes",-50%
same,change in vivo at 150 mg/kg,"[4]; 150 mg/kg, oral, mouse, 5 minutes",-55%
same,change in vivo at 200 mg/kg,"[4]; 200 mg/kg, oral, mouse, 5 minutes",-90%
same,% of increase in the number of displacements of the animal,[5]; 10 mg/kg,+30%
same,% of increase in the number of displacements of the animal,[5]; 20 mg/kg,+47%
same,% of increase in the number of displacements of the animal,[5]; 50 mg/kg,+60%
same,% of increase in the number of displacements of the animal,[5]; 75 mg/kg,+82%
same,change in vivo at 50 mg/kg,[6]; 50 mg/kg,-12%
same,change in vivo at 75 mg/kg,[6]; 75 mg/kg,-21%
same,change in vivo at 100 mg/kg,[6]; 100 mg/kg,-23%
same,change in vivo at 25 mg/kg,[7],-20%
same,change in vivo at 50 mg/kg,[7],-20%
same,change in vivo at 75 mg/kg,[7],-40%
same,change in vivo at 100 mg/kg,[7]; 100 mg/kg,-60%
same,change in vivo at 150 mg/kg,[7]; 150 mg/kg,-70%
same,Test of despair: % of antagonism,[8]; 50 mg/kg,-18%
same,Test of despair: % of antagonism,[8]; 100 mg/kg,-41%
same,Test of despair: % of antagonism,[8]; 200 mg/kg,-53%
same,% of inhibition of salivation induced by pilocarpine,[9]; 75 mg/kg,-39%
same,% of inhibition of salivation induced by pilocarpine,[9]; 100 mg/kg,-48%
same,% of inhibition of salivation induced by pilocarpine,[9]; 200 mg/kg,-76%
C(=Nc1cc2c(cc1CCN1CCCCC1)OCO2)c1cccnc1 [COR 01 174],mortality at 336 h,[1]; 2000 mg/kg,50%
same,% of mortality,[2]; 500 mg/kg,0%
same,% of mortality,[2]; 1000 mg/kg,10%
same,% of analgesic activity,[3]; [11],48%
same,inhibition in vivo at 200 mg/kg,"[3]; Mus musculus, 200 mg/kg, male Swiss mouse, PBQ, read-out: % of analgesic activity",18%
C(=Nc1cc2c(cc1CCN1CCCCC1)OCO2)c1cccnc1 [COR 01 202],mortality at 336 h,[1]; 750 mg/kg,30%
same,% of mortality,[2]; 500 mg/kg,10%
same,% of mortality,[2]; 1000 mg/kg,60%
same,% of analgesic activity,[3]; [11],0%
same,% of analgesic activity,"[3]; 200 mg/kg, male Swiss mouse, PBQ",33%
same,inhibition in vivo at 50 mg/kg,"[3]; Mus musculus, 50 mg/kg, male Swiss mouse, PBQ, read-out: % of analgesic activity",2%
same,% of activity vis-a-vis the stereotype induced by apomorphine,[10]; 25 mg/kg,-35%
same,% of activity vis-a-vis the stereotype induced by apomorphine,[10]; 50 mg/kg,-32%
same,% of activity vis-a-vis the stereotype induced by apomorphine,[10]; 75 mg/kg,-29%
same,% of activity vis-a-vis the stereotype induced by apomorphine,[10]; 200 mg/kg,-20%
same,antagonism vis-a-vis the stereotype with apomorphine,[10]; in words,manifest an antagonism
same,% of increase in the number of displacements of the animal,[5]; 25 mg/kg,+48%
same,% of increase in the number of displacements of the animal,[5]; 50 mg/kg,+96%
same,change in vivo at 25 mg/kg,[7],0%
same,change in vivo at 50 mg/kg,[7],-67%
same,change in vivo at 75 mg/kg,[7],-44%
same,Test of despair: % of antagonism,[8]; 50 mg/kg,-49%
same,Test of despair: % of antagonism,[8]; 100 mg/kg,-67%
